# Laboratory results published in publication PMC10728220, “Novel 3-(pyrazol-4-yl)-2-(1H-indole-3-carbonyl)acrylonitrile derivatives induce intrinsic and extrinsic apoptotic death mediated P53 in HCT116 colon carcinoma” (Scientific Reports, 2023).
# Assays:
# [1] = test system: colorectal carcinoma (HCT116); assay: Cytotoxic MTT assay, HCT116; type: cell-based, human; details: Homo sapiens, HCT-116; MTT, 48 h treatment
# Protocol: (§1) MTT protocol was performed to study the viability of cells after treatment with the tested compounds. The studied cell lines (A549 and HCT116) were cultured and grown in RPMI‐1640 media, while HFB4 cells were reserved in DMEM‐F12 media. Both media were supplemented with 10% FBS, 1% L‐glutamine, and 1% antibiotic–antimycotic mixture. The cell lines were grown at conditions of 37 °C and 5% CO2. 10 × 10^3 of A549, and HCT116 cells and the same count of normal melanocytes (HFB4) were cultured in a 96‐well plate. The selected cultured cells were kept at 37°C and 5% CO2 overnight. Then, the medium was discarded after 24 h of incubation, and 100 µL from different concentrations of the studied compounds dissolved in fresh medium without serum, with final concentrations of 100, 50, 25, 12.5, 6.25, 3.125, 1.56, and 0.78 µg/mL was added. The treated cells were then incubated for 48 h. After that, 50 µL of MTT was added into each well for 4 h for the formazan crystals to be formed. Finally, 200 µl of 10% sodium dodecyl sulphate (SDS) was added to each well, and plates were kept at room temperature overnight to allow the reaction to be stopped. The optical density at 575 nm was read using a microplate multi-well reader, and the percentage of cell viability was calculated. The dose–response curve was drawn to calculate the IC50 values for each compound using the prism GraphPad 5 program, [84]. 5 Fluorouracil, a commercial anticancer drug was used as a reference drug (positive control). Negative untreated cell control was used in this assay.
# [2] = test system: lung carcinoma (A549); assay: Cytotoxic MTT assay, A549; type: cell-based; details: Homo sapiens, 48 h treatment
# Protocol: as §1
# [3] = test system: normal human skin melanocyte cell line (HFB4); assay: Cytotoxic MTT assay, normal HFB4 cells; type: cell-based; details: 48 h treatment
# Protocol: as §1
# [4] = test system: HepG2; parameters: method as in PMID 34939695; details: previous study of the authors; cited from earlier work
# [5] = test system: A549; parameters: method as in PMID 34939695; details: previous study of the authors; cited from earlier work
# [6] = test system: MCF-7; parameters: method as in Jumaah et al., 65; details: ref Jumaah et al., 65; cited from earlier work
# [7] = test system: HepG2; parameters: method as in doi:10.1007/s00706-021-02886-5; details: cited from earlier work
# [8] = test system: A549; parameters: method as in doi:10.1007/s00706-021-02886-5; details: cited from earlier work
Compound,IC50 [1] [µg/mL],IC50 [2] [µg/mL],melting point [°C],IC50 [3] [µg/mL],further results
"Cc1ccc(-c2nn(-c3ccccc3)cc2/C=C(\C#N)C(=O)c2c[nH]c3ccccc23)cc1 [Compound 7b, (E)-2-(1H-Indole-3-carbonyl)-3-(1-phenyl-3-(p-tolyl)-1H-pyrazol-4-yl)acrylonitrile]",> 100,> 100,288 to 290,> 100,
"N#C/C(=C\c1cn(-c2ccccc2)nc1-c1ccc(O)cc1)C(=O)c1c[nH]c2ccccc12 [Compound 7d, (E)-3-(3-(4-Hydroxyphenyl)-1-phenyl-1H-pyrazol-4-yl)-2-(1H-indole-3-carbonyl)acrylonitrile]",43,> 100,288 to 290,> 100,
3-(thiophen-2-yl)pyrazol-4-yl)chalcone,,,,,IC50 [4]: 64 µM; IC50 [5]: 66.6 µM
"N#C/C(=C\c1cn(-c2ccccc2)nc1-c1ccccc1)C(=O)c1c[nH]c2ccccc12 [Compound 7a, (E)-3-(1,3-Diphenyl-1H-pyrazol-4-yl)-2-(1H-indole-3-carbonyl)acrylonitrile]",93.1,> 100,250 to 252,> 100,
"O=c1[nH]cc(F)c(=O)[nH]1 [5 FU, 5-Fluorouracil, reference compound]",77.2,371,,223,
"N#C/C(=C\c1cn(-c2ccccc2)nc1-c1ccc(Cl)cc1)C(=O)c1c[nH]c2ccccc12 [Compound 7e, (E)-3-(3-(4-Chlorophenyl)-1-phenyl-1H-pyrazol-4-yl)-2-(1H-indole-3-carbonyl)acrylonitrile]",> 100,> 100,296 to 298,> 100,
"COc1ccc2c(/C=C/C(=O)c3cc(OC)c(OC)c(OC)c3)cn(C)c2c1 [(E)-3-(6-methoxy-1-methyl-1H-indol-3-yl)-1-(3,4,5-tri-methoxyphenyl)-prop-2-en-1-one]",,,,,IC50 [6]: 19.2 µM
"COc1ccc(-c2nn(-c3ccccc3)cc2/C=C(\C#N)C(=O)c2c[nH]c3ccccc23)cc1 [Compound 7c, (E)-2-(1H-Indole-3-carbonyl)-3-(3-(4-methoxyphenyl)-1-phenyl-1H-pyrazol-4-yl)acrylonitrile]",> 100,> 100,252 to 254,> 100,
"Cc1ccc(C=CC(=O)c2c(C)nn(-c3ccc([N+](=O)[O-])cc3)c2C)cc1 [1-[3,5-dimethyl-1-(4-nitrophenyl)-1H-pyrazol-4-yl]-3-(p-tolyl) prop-2-en-1-one]",,,,,IC50 HepG2 [7]: 57.9 µg/mL; IC50 A549 [8]: 44.3 µg/mL
